Assay results as given in patent US20250230193A1, “CYCLIC COMPOUND HAVING SELECTIVE KRAS INHIBITORY EFFECT ON HRAS AND NRAS” (CHUGAI SEIYAKU KABUSHIKI KAISHA, priority 2022, published 2025).
*1 amine or outer side, *2 acyl side, *3 side chain or, on linkers, in order; H or OH if unused. Where a SMILES comes first, the peptide text is derived from it. Bridges are numbered along the chain shown (N, C = ends). [ ]: non-standard residue; d: D form. The star is where a group is joined. hPhe(3-Cl-4-CF3) = N[C@@H](CCc1ccc(C(F)(F)F)c(Cl)c1)C(=O)O; NPrPhe(4-CF3) = CCCN[C@@H](Cc1ccc(C(F)(F)F)cc1)C(=O)O; X19 = CCCCN([C@@H](Cc1ccc(C)cc1)C(=O)[*:2])[*:1]; NMeGly(cPent) = CN[C@H](C(=O)O)C1CCCC1; Pro(4,4-F2) = O=C(O)[C@@H]1CC(F)(F)CN1; NMeD = CN[C@@H](CC(=O)O)C(=O)O; NMeL = CN[C@@H](CC(C)C)C(=O)O; Morpholide = C1CN(*)CCO1; NMeA = CN[C@@H](C)C(=O)O; Ac5c = NC1(C(=O)O)CCCC1; Aze = O=C(O)[C@@H]1CCN1; NEtG = CCNCC(=O)O; Sar = CNCC(=O)O

Assays:
[1] = target: GDP-bound HRAS wild-type protein (Homo sapiens, UniProt P01112); assay: Binding to HRAS by surface plasmon resonance (SPR), Single Cycle Kinetics; details: for HRAS/KRAS (ratio of KD value with respect to HRAS to KD value with respect to KRAS) / HRAS/KRAS (ratio of KD value for HRAS to KD value for KRAS): GDP-bound HRAS wild-type vs GDP-bound KRAS wild-type; for HRAS/KRAS (ratio of KD value with respect to HRAS to KD value with respect to KRAS) / HRAS/KRAS (ratio of KD for GDP-bound HRAS wild-type to KD for KRAS) / HRAS/KRAS (ratio of KD value for HRAS to KD value for KRAS): SPR
Chain of GDP-bound HRAS wild-type protein (P01112 whole entry): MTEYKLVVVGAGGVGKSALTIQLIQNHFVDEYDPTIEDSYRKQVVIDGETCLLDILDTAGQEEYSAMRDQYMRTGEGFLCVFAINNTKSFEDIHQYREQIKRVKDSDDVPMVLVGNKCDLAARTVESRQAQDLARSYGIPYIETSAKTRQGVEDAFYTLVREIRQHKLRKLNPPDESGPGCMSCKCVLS

[2] = target: GDP-bound NRAS wild-type protein (Homo sapiens, UniProt P01111); assay: Binding to NRAS by surface plasmon resonance (SPR), Single Cycle Kinetics; details: for NRAS/KRAS (ratio of KD value with respect to NRAS to KD value with respect to KRAS) / NRAS/KRAS (ratio of KD value for NRAS to KD value for KRAS): GDP-bound NRAS wild-type vs GDP-bound KRAS wild-type; for NRAS/KRAS (ratio of KD value with respect to NRAS to KD value with respect to KRAS) / NRAS/KRAS (ratio of KD for GDP-bound NRAS wild-type to KD for KRAS) / NRAS/KRAS (ratio of KD value for NRAS to KD value for KRAS): SPR
Chain of GDP-bound NRAS wild-type protein (P01111 whole entry): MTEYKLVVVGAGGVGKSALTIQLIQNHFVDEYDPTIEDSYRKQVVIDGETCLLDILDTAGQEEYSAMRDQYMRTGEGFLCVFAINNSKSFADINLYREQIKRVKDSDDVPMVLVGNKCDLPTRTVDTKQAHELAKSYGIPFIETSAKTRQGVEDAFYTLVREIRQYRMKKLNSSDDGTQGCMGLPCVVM

SMILES: CCO[C@@H]1C[C@H]2C(=O)NC3(CC(C)(C)C3)C(=O)N(C)[C@@H](C(CC)CC)C(=O)N(C)[C@H](C(=O)N(C)C)CC(=O)N(C)[C@H]3CCC/C=C/c4ccc(cc4)C[C@@H](C(=O)N(C)CC(=O)N[C@@H](CCc4cc(F)c(C(F)(F)F)c(F)c4)C(=O)N2C1)N1CC/C=C\C[C@@H](C1=O)N(C)C(=O)CN(C)C(=O)[C@H]([C@@H](C)CC)NC3=O [PP2575]
- HRAS/KRAS (ratio of KD value with respect to GDP-bound HRAS wild-type protein to KD value with respect to KRAS) ([1]; KD ratio HRAS/KRAS, class symbols): A (a compound having 10 or more and less than 20 is denoted as A)
- NRAS/KRAS (ratio of KD value with respect to GDP-bound NRAS wild-type protein to KD value with respect to KRAS) ([2]; KD ratio NRAS/KRAS, class symbols): A (a compound having 10 or more and less than 20 is denoted as A)

SMILES: CCO[C@@H]1C[C@H]2C(=O)NC3(CCC3)C(=O)N(C)[C@@H](C3CCCC3)C(=O)N(C)[C@H](C(=O)N(C)C)CC(=O)N(C)[C@@H](CC(F)F)C(=O)N[C@@H]([C@@H](C)CC)C(=O)N(C)CC(=O)N(C)[C@H]3C/C=C\CCN(C3=O)[C@@H](Cc3ccc(C(F)(F)F)cc3)C(=O)N(C)CC(=O)N[C@@H](CCc3cc(F)c(C(F)(F)F)c(F)c3)C(=O)N2C1 [PP1120]
- HRAS/KRAS (ratio of KD value with respect to HRAS to KD value with respect to KRAS) ([1]; KD ratio): A (a compound having 10 or more and less than 20 is denoted as A)
- NRAS/KRAS (ratio of KD value with respect to NRAS to KD value with respect to KRAS) ([2]; KD ratio): A (a compound having 10 or more and less than 20 is denoted as A)

SMILES: C=CCCC[C@H]1C(=O)N[C@@H]([C@@H](C)CC)C(=O)N(C)CC(=O)N(C)[C@H]2CCCCCN(C2=O)[C@@H](Cc2ccc(C(F)(F)F)cc2)C(=O)N(C)CC(=O)N[C@@H](CCc2cc(F)c(C(F)(F)F)c(F)c2)C(=O)N2C[C@H](OCC)C[C@H]2C(=O)N[C@](C)(CC=C)C(=O)N(C)[C@@H](C2CCCC2)C(=O)N(C)[C@H](C(=O)N2CCOCC2)CC(=O)N1C [PP0880]
- HRAS/KRAS (ratio of KD value with respect to HRAS to KD value with respect to KRAS) ([1]; KD ratio): B (a compound having 3 or more and less than 10 is denoted as B)
- NRAS/KRAS (ratio of KD value with respect to NRAS to KD value with respect to KRAS) ([2]; KD ratio): B (a compound having 3 or more and less than 10 is denoted as B)

SMILES: CCCN1C(=O)[C@@H]2CCN2C(=O)CN(C)C(=O)[C@H]([C@@H](C)CC)NC(=O)[C@H](CC(C)C)N(C)C(=O)C[C@@H](C(=O)N2CCOCC2)NC(=O)[C@H](C2CCCC2)N(C)C(=O)C2(CCCC2)NC(=O)[C@@H]2CCCN2C(=O)[C@H](CCc2ccc(C(F)(F)F)c(Cl)c2)NC(=O)CN(C)C(=O)[C@@H]1Cc1ccc(C(F)(F)F)cc1 [PP0349] ([NMeL]I[Sar][Aze][NPrPhe(4-CF3)][Sar][hPhe(3-Cl-4-CF3)]P[Ac5c][NMeGly(cPent)]D-Morpholide; lactam N-11)
- HRAS/KRAS (ratio of KD for GDP-bound HRAS wild-type to KD for KRAS) ([1]; KD ratio HRAS/KRAS): B (a compound having 3 or more and less than 10 is denoted as B)
- NRAS/KRAS (ratio of KD for GDP-bound NRAS wild-type to KD for KRAS) ([2]; KD ratio NRAS/KRAS): C (A compound having a KD ratio of 0.1 or more and less than 3 is denoted as C)

SMILES: CCO[C@@H]1C[C@H]2C(=O)NC3(CCCC3)C(=O)N(C)[C@@H](C3CCCC3)C(=O)N(C)[C@H](C(=O)N(C)C)CC(=O)N(C)[C@@H](CC)C(=O)N[C@@H]([C@@H](C)CC)C(=O)N(C)CC(=O)N(C)[C@H]3C/C=C\CCN(C3=O)[C@@H](Cc3ccc(C(F)(F)F)cc3)C(=O)N(C)CC(=O)N[C@@H](CCc3cc(C)c(Cl)c(C)c3)C(=O)N2C1 [PP1823]
- HRAS/KRAS (ratio of KD value for HRAS to KD value for KRAS) ([1]; KD ratio): A (a compound having 10 or more and less than 20 is denoted as A)
- NRAS/KRAS (ratio of KD value for NRAS to KD value for KRAS) ([2]; KD ratio): A (a compound having 10 or more and less than 20 is denoted as A)

SMILES: CCCCN1C(=O)[C@@H]2CCN2C(=O)[C@H](C)N(C)C(=O)[C@H]([C@@H](C)CC)NC(=O)[C@H](CC(C)C)N(C)C(=O)C[C@@H](C(=O)N2CCOCC2)N(C)C(=O)[C@H](C2CCCC2)N(C)C(=O)C2(CCCC2)NC(=O)[C@@H]2CCCN2C(=O)[C@H](CCc2ccc(C(F)(F)F)c(Cl)c2)NC(=O)CN(C)C(=O)[C@@H]1Cc1ccc(C)cc1 [PP0055] ([NMeL]I[NMeA][Aze][X19][Sar][hPhe(3-Cl-4-CF3)]P[Ac5c][NMeGly(cPent)][NMeD]-Morpholide; lactam N-11)
- HRAS/KRAS (ratio of KD for GDP-bound HRAS wild-type to KD for KRAS) ([1]; KD ratio HRAS/KRAS): C (A compound having a KD ratio of 0.1 or more and less than 3 is denoted as C)
- NRAS/KRAS (ratio of KD for GDP-bound NRAS wild-type to KD for KRAS) ([2]; KD ratio NRAS/KRAS): C (A compound having a KD ratio of 0.1 or more and less than 3 is denoted as C)

SMILES: CCCN(C)C(=O)[C@@H]1CC(=O)N(C)[C@@H](C)C(=O)N[C@@H]([C@@H](C)CC)C(=O)N(C)CC(=O)N(C)[C@H]2C/C=C\CCN(C2=O)[C@@H](Cc2ccc(C(F)(F)F)cc2)C(=O)N(C)CC(=O)N[C@@H](CCc2cc(F)c(C(F)(F)F)c(F)c2)C(=O)N2C[C@H](OCC)C[C@H]2C(=O)NC2(CCC2)C(=O)N(C)[C@@H](C2CCCC2)C(=O)N1C [PP1666]
- HRAS/KRAS (ratio of KD value for HRAS to KD value for KRAS) ([1]; KD ratio): A (a compound having 10 or more and less than 20 is denoted as A)
- NRAS/KRAS (ratio of KD value for NRAS to KD value for KRAS) ([2]; KD ratio): A (a compound having 10 or more and less than 20 is denoted as A)

SMILES: CCCN1C(=O)CN(C)C(=O)CN(CC)C(=O)[C@H]([C@@H](C)CC)NC(=O)[C@H](CC(C)C)N(C)C(=O)C[C@@H](C(=O)N(C)C)NC(=O)[C@H](C2CCCC2)N(C)C(=O)C2(CCCC2)NC(=O)[C@@H]2CC(F)(F)CN2C(=O)[C@H](CCc2ccc(C(F)(F)F)c(Cl)c2)NC(=O)CN(C)C(=O)[C@@H]1Cc1ccc(C(F)(F)F)cc1 [PP0369] ([NMeL]I[NEtG][Sar][NPrPhe(4-CF3)][Sar][hPhe(3-Cl-4-CF3)][Pro(4,4-F2)][Ac5c][NMeGly(cPent)]D-NMe2; lactam N-11)
- HRAS/KRAS (ratio of KD for GDP-bound HRAS wild-type to KD for KRAS) ([1]; KD ratio HRAS/KRAS): C (A compound having a KD ratio of 0.1 or more and less than 3 is denoted as C)
- NRAS/KRAS (ratio of KD for GDP-bound NRAS wild-type to KD for KRAS) ([2]; KD ratio NRAS/KRAS): B (a compound having 3 or more and less than 10 is denoted as B)

SMILES: CCO[C@@H]1C[C@H]2C(=O)NC3(CCC3)C(=O)N(C)[C@@H](C3CCCC3)C(=O)N(C)[C@H](C(=O)N(C)C)CC(=O)N(C)[C@@H](Cc3ccccc3)C(=O)N[C@@H]([C@@H](C)CC)C(=O)N(C)CC(=O)N(C)[C@H]3C/C=C\CCN(C3=O)[C@@H](Cc3ccc(C(F)(F)F)cc3)C(=O)N(C)CC(=O)N[C@@H](CCc3cc(F)c(C(F)(F)F)c(F)c3)C(=O)N2C1 [PP1116]
- HRAS/KRAS (ratio of KD value with respect to HRAS to KD value with respect to KRAS) ([1]; KD ratio): A (a compound having 10 or more and less than 20 is denoted as A)
- NRAS/KRAS (ratio of KD value with respect to NRAS to KD value with respect to KRAS) ([2]; KD ratio): A (a compound having 10 or more and less than 20 is denoted as A)

SMILES: CCO[C@@H]1C[C@H]2C(=O)NC3(CC(C)(C)C3)C(=O)N(C)[C@@H](C3CCCC3)C(=O)N(C)[C@H](C(=O)N(C)CC)CC(=O)N(C)[C@H]3CCCCCCc4ccc(cc4)C[C@@H](C(=O)N(C)CC(=O)N[C@@H](CCc4ccc(C(F)(F)F)c(OC)c4)C(=O)N2C1)N1CC/C=C\C[C@@H](C1=O)N(C)C(=O)CN(C)C(=O)[C@H]([C@@H](C)CC)NC3=O [PP2260, (1S,7S,11R,13S,19S,22S,26S,29S,35S,37Z)-19-cyclopentyl-11-ethoxy-N-ethyl-7-[2-[3-methoxy-4-(trifluoromethyl)phenyl]ethyl]-N,3,3′,3′,18,21,25,31,34-nonamethyl-29-[(1S)-1-methylpropyl]-2,5,8,14,17,20,24,27,30,33,55-undecaoxo-spiro[3,6,9,15,18,21,25,28,31,34,41-undecazapentacyclo[24.15.11.2^43,46.1^35,41.0^9,13]pentapentaconta-37,43(54),44,46(53)-tetraene-16,1′-cyclobutane]-22-carboxamide]
- HRAS/KRAS (ratio of KD value with respect to HRAS to KD value with respect to KRAS) [1]: A (a compound having 10 or more and less than 20 is denoted as A)
- NRAS/KRAS (ratio of KD value with respect to NRAS to KD value with respect to KRAS) [2]: A (a compound having 10 or more and less than 20 is denoted as A)
